Results reported in patent US4598066A, “Antimycoplasmal agent for animals and method of use for prevention and treatment of mycoplasmosis” (Fujisawa Pharmaceutical Co., Ltd., priority 1982, dated 1986).

Tested on: Mycoplasma gallisepticum 1RF
Experiment: Test 5: Mycoplasma gallisepticum 1RF intranasal infection in chickens, Compound 1 and tylosin alone and combined
Type: in vivo, chicken
Conditions: single oral dose 100 mg/kg 1 hr after intranasal infection; 20 days after infection (group C)
Description: Mycoplasma: Mycoplasma gallisepticum 1RF supplied from the National Institute of Animal Health, Ibaraki prefecture, Japan was used.
Chickens used: Broiler males (Chunky), purchased as day-old chickens from a commercial flock free of Mycoplasma gallisepticum agglutinins, were maintained under isolation in an electrically heated battery brooder. When birds reached 7 to 8 days of age, they were used for test.
Infection of mycoplasma: Mycoplasma gallisepticum 1RF was cultured in PPLO liquid medium (Difco) for 3 to 4 days at 37° C. until the colour of broth changed from red to yellowish organge. An aliquot of the culture (10^7 -10^8 cfu/ml) was used for infection.
Intranasal infections were produced by dropping 0.05 ml of the culture into the nasal cavity of chickens.
Recovery of mycoplasma: Twenty to 21 days after infection, the chickens were killed and recovery of mycoplasma was examined from the trachea, air-sac, and tibia-metatarsus joints.
Recovered organisms were identified as Mycoplasma gallisepticum after examining glucose fermentation, colonies, and haemadsorption test.
Inhibition(%) of infection: Average recovery percentage of Mycoplasma gallisepticum from trachea, air-sac, and tibia-metatarsus joints was measured infected medicated, and infected non-medicated chickens.
Inhibition(%) was calculated as follows: [formula] […]

Structure (SMILES): CC[C@H]1OC(=O)C[C@@H](O)[C@H](C)[C@@H](O[C@@H]2O[C@H](C)[C@@H](O[C@H]3C[C@@](C)(O)[C@@H](O)[C@H](C)O3)[C@H](N(C)C)[C@H]2O)[C@@H](CC=O)C[C@@H](C)C(=O)/C=C/C(C)=C/[C@@H]1CO[C@@H]1O[C@H](C)[C@@H](O)[C@@H](OC)[C@H]1OC [Tylosin, tylosin]
- Inhibition (%) of infection: 17%
